Biological target: T1, human USP7 (Homo sapiens, UniProt Q93009)
T1 construct: Full-length wild-type human USP7; His (N); made in house; host or cells: Spodoptera frugiperda Sf9 (baculovirus, pFastBac-HT)
Test: USP7 activity assay (Ub-AMC)
Assay type: biochemical
Settings: 300 nM Ub-AMC, 100 pM enzyme; compounds tested from 200 µM to 91 nM; unit inferred; read-out: Inhibition of cysteine protease activities: USP7
From the text: The cDNA encoding USP7 was obtained by PCR amplification from placenta mRNA. USP7 cDNA was subcloned by PCR into a baculovirus expression vector (pFastBac-HT; Invitrogen). Full-length wild-type human USP7 and its catalytic mutant (cysteine 223 replaced by alanine, C223A) were produced as N-terminally His-tagged fusions in Spodoptera frugiperda cells (Sf9, Invitrogen), using the Bac-to-Bac Baculovirus system from Invitrogen according to the manufacturer's instructions. pFastBac-HT-B-USP7 was used to transform DH10bac cells (Invitrogen), and blue/white selection was carried out on X-gal/IPTG agar plates. Bacmid DNA was prepared by an alkaline lysis procedure. The integrity of the bacmid minipreps and their orientation were checked by PCR, using generic and specific primers. Sf9 cells were cultured in InsectXpress medium (Cambrex) at 27°C and transfected with the corresponding bacmid, using GeneShuttle 40 (Q-BIOgen). Viruses were recovered in the supernatant 72 h after transfection. Viruses were amplified by infecting Sf9 cells in 50 ml InsectXpress medium in a 150 cm^2 cell culture flask with 500 µl of the supernatant from transfected Sf9 cells. Following the second round of amplification, Sf9 cells were recovered by rapid SDS lysis, boiled for 5 min at 100°C, sonicated briefly and centrifuged for 20 min at 14,000 g. Expression levels in infected Sf9 cells were compared with those in uninfected cells. […] Beads were extensively washed (50 mM sodium phosphate buffer pH 7.0, 500 mM NaCl, 10 mM Imidazole, 0.5% Triton X-100 and 10% glycerol) and bound proteins were eluted in wash buffer supplemented with 250 mM Imidazole (Sigma). Eluted fractions were resolved on 4-12% NuPAGE gels (Novex, Invitrogen). Fractions containing high concentrations of purified proteins (purity > 95%) were dialyzed (20 mM Tris HCl pH 7.6, 200 mM NaCl, 1 mM DTT, 1 mM EDTA and 10% glycerol) were aliquoted and snap frozen in liquid nitrogen before storage at -80°C.
USP7 was diluted in USP buffer (50 mM Tris HCl; 0.5 mM EDTA; 5 mM DTT; 0.01 % Triton X-100; Bovine Serum Albumin 0.05 mg.ml^-1 pH7.6). Compounds stocks (100 mM) were stored at -20°C in DMSO. Compounds were tested at different concentrations: from 200 µM to 91 nM.
Reactions were performed as duplicates in Black LJL 96 well plates (HE microplates; Molecular Devices; 20 µl final reaction volume). The substrate concentration for USP7 was 300 nM Ub-AMC (Chem. Biol., 2003, 10, p. 837-846) (Boston Biochem). The concentrations of the enzyme (USP7) in specificity assays was 100 pM. The concentrations were determined in order to perform specificity assays under initial velocities at fixed substrate concentration. Compounds were pre-incubated with enzymes for 30 minutes at 25°C. Reactions were initiated by addition of substrate to the plates containing the enzymes (+/- compounds) diluted in assay buffer. Reactions were incubated for 60 minutes at 37°C. Reactions were stopped by adding acetic acid (100 mM final). Readings were performed on a Pherastar Fluorescent Reader (BMG). λ […]. Data (mean values +/- standard deviation) were analyzed as % of control (no compound) and plotted as percentage versus the Log of the compound concentration using GraphPad (Prism). Data were fitted to a sigmoidal model (variable slope).

T1 sequence (Q93009 whole entry): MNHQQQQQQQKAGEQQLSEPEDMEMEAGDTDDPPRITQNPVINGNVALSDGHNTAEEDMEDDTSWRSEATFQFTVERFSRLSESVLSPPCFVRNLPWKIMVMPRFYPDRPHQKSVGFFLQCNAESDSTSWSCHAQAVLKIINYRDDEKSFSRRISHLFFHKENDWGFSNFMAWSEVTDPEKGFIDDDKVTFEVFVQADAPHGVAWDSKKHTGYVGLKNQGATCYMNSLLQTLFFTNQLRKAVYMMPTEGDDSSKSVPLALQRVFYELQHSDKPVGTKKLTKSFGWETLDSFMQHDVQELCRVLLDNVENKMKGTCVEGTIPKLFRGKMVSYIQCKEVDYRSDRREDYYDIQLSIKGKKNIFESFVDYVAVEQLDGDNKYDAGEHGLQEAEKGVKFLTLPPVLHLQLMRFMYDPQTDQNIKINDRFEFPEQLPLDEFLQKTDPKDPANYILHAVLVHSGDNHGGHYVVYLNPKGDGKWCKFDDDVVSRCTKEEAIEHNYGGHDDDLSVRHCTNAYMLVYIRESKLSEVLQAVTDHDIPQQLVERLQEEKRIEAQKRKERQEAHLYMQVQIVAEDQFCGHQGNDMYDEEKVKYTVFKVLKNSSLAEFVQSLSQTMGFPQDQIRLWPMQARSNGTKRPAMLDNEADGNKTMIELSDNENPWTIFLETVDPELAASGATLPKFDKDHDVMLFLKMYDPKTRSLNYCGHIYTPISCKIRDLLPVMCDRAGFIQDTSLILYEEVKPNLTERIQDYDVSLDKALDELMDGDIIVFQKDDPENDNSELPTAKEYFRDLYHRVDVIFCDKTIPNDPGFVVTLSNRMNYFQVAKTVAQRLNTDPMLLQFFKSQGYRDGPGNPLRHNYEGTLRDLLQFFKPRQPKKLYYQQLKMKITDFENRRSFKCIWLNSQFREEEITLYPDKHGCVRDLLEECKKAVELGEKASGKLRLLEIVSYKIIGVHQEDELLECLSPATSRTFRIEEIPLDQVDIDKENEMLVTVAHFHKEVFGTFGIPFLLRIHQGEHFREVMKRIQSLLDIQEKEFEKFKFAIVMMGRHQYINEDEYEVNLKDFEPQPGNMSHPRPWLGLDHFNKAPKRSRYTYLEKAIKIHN

With `CC(=O)C1=C(O)C(=O)N(CCc2ccc(Cl)cc2)C1c1ccc(Br)cc1` (stereo not shown) [Example 25, 4-acetyl-5-(4-bromo-phenyl)-1-[2-(4-chloro-phenyl)-ethyl]-3-hydroxy-1,5-dihydro-pyrrol-2-one] the IC50 was 3.1 µM.
With `CC(=O)C1=C(O)C(=O)N(CCc2ccc(Br)cc2)C1c1ccc(Br)cc1` (stereo not shown) [Example 26, 4-acetyl-5-(4-bromo-phenyl)-1-[2-(4-bromo-phenyl)-ethyl]-3-hydroxy-1,5-dihydro-pyrrol-2-one] the IC50 was 2.7 µM.
`CC(=O)C1=C(O)C(=O)N(CCc2ccc(Cl)c(Cl)c2)C1c1ccc(Br)cc1` (stereo not shown) [Example 28, 4-acetyl-5-(4-bromo-phenyl)-1-[2-(3,4-dichloro-phenyl)-ethyl]-3-hydroxy-1,5-dihydro-pyrrol-2-one] gave an IC50 of 1.61 µM.
`COc1cccc(CCN2C(=O)C(O)=C(C(C)=O)C2c2ccc(Br)cc2)c1` (stereo not shown) [Example 30, 4-acetyl-5-(4-bromo-phenyl)-3-hydroxy-1-[2-(3-methoxyphenyl)-ethyl]-1,5-dihydro-pyrrol-2-one] showed an IC50 of 11.1 µM.
With `COc1ccc(CCN2C(=O)C(O)=C(C(C)=O)C2c2ccc(Br)cc2)cc1` (stereo not shown) [Example 32, 4-acetyl-5-(4-bromo-phenyl)-3-hydroxy-1-[2-(4-methoxyphenyl)-ethyl]-1,5-dihydro-pyrrol-2-one] the IC50 was 5.28 µM.
Work on `CC(=O)C1=C(O)C(=O)N(CCc2ccc(F)cc2)C1c1ccc(Br)cc1` (stereo not shown) [Example 33, 4-acetyl-5-(4-bromo-phenyl)-3-hydroxy-1-[2-(4-fluorophenyl)-ethyl]-1,5-dihydro-pyrrol-2-one] yielded an IC50 of 3.05 µM.
`CCOc1ccc(CCN2C(=O)C(O)=C(C(C)=O)C2c2ccc(Br)cc2)cc1` (stereo not shown) [Example 34, 4-acetyl-5-(4-bromo-phenyl)-3-hydroxy-1-[2-(4-ethoxy-phenyl)-ethyl]-1,5-dihydro-pyrrol-2-one] gave an IC50 of 6.6 µM.
With `CC(=O)C1=C(O)C(=O)N(CCc2ccccc2)C1c1ccc2c(c1)OCO2` (stereo not shown) [Example 37, 4-acetyl-5-benzo[1,3]dioxol-5-yl-3-hydroxy-1-phenethyl-1,5-dihydro-pyrrol-2-one] the IC50 was 7.03 µM.
With `CC(=O)C1=C(O)C(=O)N(CCc2ccccc2)C1c1ccc(Br)c(Br)c1` (stereo not shown) [Example 41, 4-acetyl-5-(3,4-dibromo-phenyl)-3-hydroxy-1-phenethyl-1,5-dihydro-pyrrol-2-one] the IC50 was 8.98 µM.
`CC(=O)C1=C(O)C(=O)N(CCc2ccccc2)C1c1cccnc1Cl` (stereo not shown) [Example 42, 4-acetyl-5-(2-chloro-pyridin-3-yl)-3-hydroxy-1-phenethyl-1,5-dihydro-pyrrol-2-one] gave an IC50 of 12 µM.
For `CC(=O)C1=C(O)C(=O)N(CCc2ccc(Br)cc2)C1c1ccc(Cl)cc1` (stereo not shown) [Example 45, 4-Acetyl-5-(4-chlorophenyl)-1-[2-(4-bromophenyl)-ethyl]-3-hydroxy-1,5-dihydro-pyrrol-2-one], the IC50 was 4.2 µM.
In the case of `CC(=O)C1=C(O)C(=O)N(CCc2ccc(Cl)cc2)C1c1ccc(Cl)cc1` (stereo not shown) [Example 46, 4-Acetyl-5-(4-chlorophenyl)-1-[2-(4-chlorophenyl)-ethyl]-3-hydroxy-1,5-dihydro-pyrrol-2-one], the IC50 is reported as 4.4 µM.
`CC(=O)C1=C(O)C(=O)N(CCc2ccc(Cl)cc2Cl)C1c1ccc(Br)cc1` (stereo not shown) [Example 47, 4-Acetyl-5-(4-bromophenyl)-1-[2-(2,4-dichlorophenyl)-ethyl]-3-hydroxy-1,5-dihydro-pyrrol-2-one] was tested, and the IC50 was 1.9 µM.

From patent EP2208725A1, “Novel specific inhibitors of ubiquitin specific protease 7, the pharmaceutical compositions thereof and their therapeutic applications” (Hybrigenics S.A., priority 2009, dated 2010)
